These results are taken from US5382670A, “Platelet activating factor antagonists” (priority 1993, dated 1995).

The term Ki denotes the equilibrium dissociation constant of an inhibitor or competing ligand from its target.

Molecules are shown by their SMILES. Structures can show the parent of a compound that is named as a salt.

For one experiment, the target named is PAF receptor (Oryctolagus cuniculus, UniProt G1TEI7). Nature of the experiment: PAF receptor binding assay: inhibition of specific [3H]C18-PAF binding to rabbit platelet membranes. Particulars: 0.6 nM [3H]C18-PAF, 60 min, 22-23 °C, Ki from IC50 (Cheng and Prusoff), read-out: Ki (PAF Receptor Binding Activity). As to the method: The ability of representative compounds of the present invention to inhibit PAF activity was determined in an in vitro test using the following method.
Sequence of PAF receptor (G1TEI7 1-342): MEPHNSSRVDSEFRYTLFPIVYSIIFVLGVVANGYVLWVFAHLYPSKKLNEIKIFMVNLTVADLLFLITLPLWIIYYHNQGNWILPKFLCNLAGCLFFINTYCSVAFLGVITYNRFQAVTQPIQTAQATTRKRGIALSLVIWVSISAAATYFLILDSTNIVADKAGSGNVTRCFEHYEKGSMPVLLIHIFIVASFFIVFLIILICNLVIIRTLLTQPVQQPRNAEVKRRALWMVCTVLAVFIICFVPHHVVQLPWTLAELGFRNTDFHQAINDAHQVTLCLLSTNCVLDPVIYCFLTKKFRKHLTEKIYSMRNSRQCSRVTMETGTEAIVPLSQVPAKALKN
Citrated whole rabbit blood was obtained from Pel-Freez (Rogers, AR). Rabbit platelets were prepared by centrifugation and washing. The platelets were lysed by freeze-thawing and sonication; platelet membranes were prepared by centrifugation and washing. Final membrane preparations were stored frozen in 10 mM Tris/5 mM MgCl2 /2 mM EDTA (TME buffer, pH 7.0) with 0.25M sucrose added for membrane stabilization.
The standard PAF receptor binding assay contained 10 μg platelet membrane protein, 0.6 nM [^3 H]C18 -PAF (from Amersham or New England Nuclear; specific activity 120-180 Ci/mmol), with and without test compound, in "binding buffer" consisting of TME with 0.25% bovine serum albumin added (Sigma, RIA grade). The final volume of the assay was 100 μl. The assay was conducted in Millititre-GV™ (Millipore Corp.) filtration plates; incubation time was for 60 minutes at room temperature (22°-23° C.). "Specific binding" was operationally defined as the arithmetic difference between "total binding" of 0.6 nM [^3 H]C18 -PAF (in the abasence of added PAF) and "nonspecific binding" (in the presence of 1 μM PAF). After the prescribed incubation, platelet membranes were filtered under vacuum, and washed with 1 milliliter of "binding buffer". The filters were dried and removed. The bound radioactivity was quantitated with a Berthold TLC-Linear Analyzer model LB2842.
Dose-response curves of inhibition of specific [^3 H]C18 -PAF binding by test compounds were conducted in triplicate, with at least four doses covering the active range. Experiments were repeated at least once. IC50 values (concentration producing 50% inhibition) were determined by point-to-point evaluation. Ki values of inhibitory binding constants were calculated according to the method of Cheng and Prusoff [Biochem. Pharmacol. 22 (1973) 3099-3108] whereby [formula]
The values of Ki for representative compounds of the present invention appear in Table 1.
Consider `CN(C)C(=O)n1cc(C(=O)C2CSC(c3cccnc3)N2)c2ccc(Oc3ccc(F)cc3)cc21` (stereo not drawn) [Example 71, 1-dimethylcarbamoyl-3-[2-(3-pyridinyl)thiazolid-4-oyl]-6-(4-fluorophenoxy)indole], for which the Ki worked out at 2 nM.
With `Cc1ccc2c(C(=O)C3CSC(c4cccnc4)N3)cn(C(=O)OC(C)(C)C)c2c1` (stereo not drawn) [Example 81, 1-tert-butoxycarbonyl-3-[2-(3-pyridinyl)thiazolid-4-oyl]-6-methylindole oxalate], the Ki stood at 2 nM.
Same read-out and setting: the figure for `O=CN1C(C(=O)c2c[nH]c3ccccc23)CSC1c1cccnc1` (stereo not drawn) [Example 90, 3-[2-(3-pyridinyl)-3-formylthiazolid-4-oyl]indole] is 270 nM; for `CN(C)C(=O)n1cc(C(=O)[C@@H]2CS[C@H](c3cccnc3)N2C(=O)C(F)(F)F)c2ccccc21` (relative stereo) [Example 104, cis-1-dimethylcarbamoyl-3-[2-(3-pyridinyl)-3-trifluoroacetylthiazolid-4-oyl]indole] it is 650 nM; for `COc1ccc2c(C(=O)C3CSC(c4cccnc4)N3)cn(C(=O)N(C)C)c2c1` (stereo not drawn) [Example 85, 1-dimethylcarbamoyl-3-[2-(3-pyridinyl)thiazolid-4-oyl]-6-methoxyindole] it is 4 nM.
On the same count and under the same terms, under `Cc1c(C(=O)C2CSC(c3cccnc3)N2)c2ccccc2n1C(=O)OC(C)(C)C` (stereo not drawn) [Example 40, 1-tert-butoxycarbonyl-2-methyl-3-[2-(3-pyridinyl)thiazolid-4-oyl]indole oxalate] stands 10 nM; under `CN(C)C(=O)n1cc(C(=O)C2COC(c3cccnc3)N2C=O)c2ccccc21` (stereo not drawn) [Example 113, 1-dimethylcarbamoyl-3-[2-(3-pyridinyl)-3,formyloxazolid-4-oyl]indole], 1300 nM.
On the same count and under the same terms, under `CC(C)(C)C(=O)n1cc(C(=O)C2CSC(c3cccnc3)N2)c2ccccc21` (stereo not drawn) [Example 47, 1-tert-butoyl-3-[2-(3-pyridinyl)thiazolid-4-oyl]indole] stands 9 nM; under `O=C(c1cn(C(=O)OCc2ccccc2)c2ccccc12)C1CSC(c2cccnc2)N1` (stereo not drawn) [Example 45, 1-phenylmethoxycarbonyl-3-[2-(pyridinyl)thiazolid-4-oyl]indole oxalate], 3 nM; under `CC(C)(C)OC(=O)n1cc(C(=O)C2CSC(c3cccnc3)N2C=O)c2ccccc21` (stereo not drawn) [Example 56, 1-tert-butoxycarbonyl-3-[2-(3-pyridinyl)-3-formylcarbonylthiazolid-4-oyl]indole], 150 nM.
For `O=C(c1cn(C(=O)c2ccc(Cl)cc2)c2ccccc12)C1CSC(c2cccnc2)N1` (stereo not drawn) [Example 44, 1-(4-chlorobenzoyl)-3-[2-(3-pyridinyl)thiazolid-4oyl]indole], the inhibitory constant (Ki) was 4 nM.
On to `O=C(c1cn(S(=O)(=O)c2ccccc2)c2ccccc12)C1CSC(c2cccnc2)S1` (stereo not drawn) [Example 32, 1-phenylsulfonyl 3-[2-(3-pyridinyl)dithiolan-4-oyl]indole oxalate], for which the Ki amounted to 1000 nM.
Consider `O=C(c1c[nH]c2ccccc12)C1CSC(c2cccnc2)N1C(=O)C(F)(F)F` (single isomer, unassigned; isomer 2) [Example 103, 3-[2-(3-pyridinyl)-3-trifluoroacetylthiazolid-4-oyl]indole, isomer 2], for which the Ki amounted to 2800 nM.
Turning to `CN(C)C(=O)n1cc(C(=O)C2CSC(c3cccnc3)N2C(N)=O)c2ccc(OCc3ccccc3)cc21` (stereo not drawn) [Example 111, 1-dimethylcarbamoyl-3-[2-(3-pyridinyl)-3-carbamoylthiazolid-4-oyl]-6-phenylmethoxyindole], the Ki came out at 700 nM.
On the same count and under the same terms, the figure for `CN(C)C(=O)n1cc(C(=O)C2CSC(c3cccnc3)N2)c2ccc(C#Cc3ccccc3)cc21` (stereo not drawn) [Example 78] is 2 nM; for `CN(C)C(=O)n1cc(C(=O)[C@@H]2CS[C@H](c3cccnc3)N2C=O)c2ccccc21` (relative stereo) [Example 97, cis-1-Dimethylcarbamoyl-3-[2-(3-pyridinyl)-3-formylthiazolid-4-oyl]indole] it is 150 nM.
Still for that read-out and setting: the figure for `CN(C)C(=O)n1cc(C(=O)[C@@H]2CS[C@@H](c3cccnc3)N2C(=O)C(F)(F)F)c2ccccc21` (relative stereo) [Example 106, trans-1-dimethylcarbamoyl-3-[2-(3-pyridinyl)-3-trifluoroacetylthiazolid-4-oyl]indole] is 80 nM; for `CN(C)C(=O)n1cc(C(=O)C2CSC(c3cccnc3)N2S(C)(=O)=O)c2ccccc21` (stereo not drawn) [Example 112, 1-dimethylcarbamoyl-3-[2-(3-pyridinyl)-3-methylsulfonylthiazolid-4-oyl]indole] it is 4800 nM.
On to `O=C(C1CSC(c2cccnc2)N1)n1ccc2c(Cl)cccc21` (stereo not drawn) [Example 5, 1-[2-(3-pyridinyl)thiazolid-4-oyl]-4-chloroindole dihydrochloride], for which the Ki came to 33 nM.
On to `CC(=O)N1C(C(=O)c2cn(C(=O)N(C)C)c3ccccc23)CSC1c1cccnc1` (stereo not drawn) [Example 100, 1-dimethylcarbamoyl-3-[2-(3-pyridinyl)-3-acetylthiazolid-4-oyl]indole], for which the Ki turned out to be 5200 nM.
As for `CN(C)C(=O)n1cc(C(=O)C2CSC(c3cccnc3)N2C(=O)C(F)(F)F)c2ccc(OCc3ccccc3)cc21` (single isomer, unassigned; isomer 2) [Example 109, 1-dimethylcarbamoyl-3-[2-[3-pyridinyl)-3-trifluoroacetylthiazolid-4-oyl]-6-phenylmethoxyindole, isomer 2], the Ki was 70 nM.
Turning to `O=C(c1cn(C(=O)N2CCOCC2)c2cc(OCc3ccccc3)ccc12)C1CSC(c2cccnc2)N1` (stereo not drawn) [Example 72, 1-(4-morpholinocarbonyl)-3-[2-(3-pyridinyl)thiazolid-4-oyl]-6-phenylmethoxyindole oxalate], the Ki was 10 nM.
`O=C(c1cn(C(=O)N2CCOCC2)c2ccccc12)C1CSC(c2cccnc2)N1` (stereo not drawn) [Example 55, 1-(4-morpholinocarbonyl)-3-[2-(3-pyridinyl)thiazolid-4-oyl]indole]: the Ki turned out to be 2 nM.
Take `O=C(c1ccccc1)c1ccc2ccn(C(=O)C3CSC(c4cccnc4)N3)c2c1` (stereo not drawn) [Example 17, 1-[2-(3-pyridinyl)thiazolid-4-oyl]-6-benzoylindole]: the Ki is 93 nM.

The experiment is the same for the next values; noted with them: Ki (PAF Receptor Binding Activity), 0.6 nM [3H]C18-PAF, 60 min, 22-23 °C, Ki from IC50 (Cheng and Prusoff).
Molecule `CS(=O)(=O)n1cc(C(=O)C2CSC(c3cccnc3)N2)c2ccccc21` (stereo not drawn) [Example 37, 1-methylsulfonyl-3-[2-(3-pyridinyl)thiazolid-4-oyl-]indole] displayed a Ki of 15 nM.
With `O=C(O)Cn1cc(C(=O)C2CSC(c3cccnc3)N2)c2ccccc21` (stereo not drawn) [Example 120, 1-carboxymethyl-3-[2-(3-pyridinyl)thiazolid-4-oyl]indole], affinity was put at a Ki of 19 nM.
`O=C(C1CSC(c2cccnc2)N1)n1ccc2ccc(Br)cc21` (stereo not drawn) [Example 16, 1-[2-(3-pyridinyl)thiazolid-4-oyl]-6-bromoindole]: the affinity corresponds to a Ki of 25 nM.
Same read-out and setting: under `O=C(O)CCn1cc(C(=O)C2CSC(c3cccnc3)N2)c2ccccc21` (stereo not drawn) [Example 119, 1-carboxyethyl-3-[2-(3-pyridinyl)thiazolid-4-oyl]indole] stands 20 nM; under `CCCn1cc(C(=O)C2CSC(c3cccnc3)N2)c2ccccc21` (stereo not drawn) [Example 61, 1-propyl-3-[2-(3-pyridinyl)thiazolid-4-oyl]indole], 8 nM; under `O=C(C1CSC(c2cccnc2)N1)n1ccc2cc(Cl)ccc21` (stereo not drawn) [Example 9, 1-[2-(3-pyridinyl)thiazolid-4-oyl]-5-chloroindole dihydrochloride], 140 nM.
Consider `Cc1ccc2[nH]c(C)c(C(=O)C3CSC(c4cccnc4)N3)c2c1` (stereo not drawn) [Example 66, 2,5-dimethyl-3-[2-[3-pyridinyl)thiazolid-4-oyl]indole oxalate], for which the Ki is 31 nM.
The molecule `O=C(C1CSC(c2cccnc2)N1)n1ccc2c(Br)cccc21` (stereo not drawn) [Example 6, 1-[2-(3-pyridinyl)thiazolid-4-oyl]-4-bromoindole dihydrochloride] had an inhibitory constant (Ki) of 53 nM.
The molecule `COc1ccc2c(C(=O)C3CSC(c4cccnc4)N3)c[nH]c2c1` (stereo not drawn) [Example 82, 3-[2-(3-pyridinyl)thiazolid-4-oyl]-6-methoxyindole] yielded a Ki of 9 nM.
Take `CCn1cc(C(=O)C2CSC(c3cccnc3)N2)c2ccccc21` (stereo not drawn) [Example 27, 1-ethyl-3-[2-(3-pyridinyl)thiazolid-4-oyl]indole oxalate]: the Ki stood at 6 nM.
With `Cc1ccc2c(c1)cc(C)n2C(=O)C1CSC(c2cccnc2)N1` (stereo not drawn) [Example 4, 1-[2-(3-pyridinyl)thiazolid-4-oyl]-2,5-dimethylindole], the Ki worked out at 46 nM.
Take `Cc1cccc2c(C(=O)C3CSC(c4cccnc4)N3)c[nH]c12` (stereo not drawn) [Example 25, 3-(2-(3-pyridinyl)thiazolid-4-oyl)-7-methylindole oxalate]: the Ki amounted to 5 nM.
